# According to US7317030B2, “Compounds as inhibitors of cell proliferation and viral infections” (4SC AG, priority 2004, dated 2008):
# Biological target: T1, Kv1.3 channels (Mus musculus, UniProt P16390)
# T1 construct: expressed in transfected cells; host or cells: L929 cells, stably transfected
# Test: Kv1.3 assay, whole-cell patch-clamp in stably transfected L929 cells
# Type: cell-based
# Details: c=20 μM, two cells per compound
# Experimental: The inhibition of Kv1.3 was measured in stable transfected cell lines expressing mouse Kv1.3 using the patch-clamp technique (Rauer H et al. J Biol Chem Vol. 275, No. 2, 1201-1208, 2000), Rauer H Mol Pharmacol, 50, 1625-1634, 1996, Rauer H et al. J Pharmacol, 127, 1065-1074, 1999).
# Stable transfected L929 cells with Kv1.3 channels were grown in DMEM (Glutamax-I) media with 10% FCS, geneticin 330 μg/ml under 10% CO2 atmosphere.
# Whole-cell patch-clamp configuration, with an external bath solution of 160 mM NaCl, 4, 5 mM KCl, 1 mM MgCl, 2 mM CaCl2, 5 mM HEPES, 10 mM EGTA and NaOH adjusted to pH 7.4. Internal pipette solution for recording was 155 mM KF, 2 mM MgCl2, 10 mM HEPES, 10 mM EGTA with KOH adjusted to pH 7.2. Currents were activated by a 200-ms voltage step from a holding potential of −80 to 40 mV every 30 s. Holding potential −80 mV.
# Each compound was tested on two different cells. The cell was perfused with external bath solution (black line), then the compound was applied (c=20 μM). The resulting stedy-state current traces are shown as red lines. Example 3, 5, 6, 7, 8 are blockers.
# T1 sequence (P16390 whole entry): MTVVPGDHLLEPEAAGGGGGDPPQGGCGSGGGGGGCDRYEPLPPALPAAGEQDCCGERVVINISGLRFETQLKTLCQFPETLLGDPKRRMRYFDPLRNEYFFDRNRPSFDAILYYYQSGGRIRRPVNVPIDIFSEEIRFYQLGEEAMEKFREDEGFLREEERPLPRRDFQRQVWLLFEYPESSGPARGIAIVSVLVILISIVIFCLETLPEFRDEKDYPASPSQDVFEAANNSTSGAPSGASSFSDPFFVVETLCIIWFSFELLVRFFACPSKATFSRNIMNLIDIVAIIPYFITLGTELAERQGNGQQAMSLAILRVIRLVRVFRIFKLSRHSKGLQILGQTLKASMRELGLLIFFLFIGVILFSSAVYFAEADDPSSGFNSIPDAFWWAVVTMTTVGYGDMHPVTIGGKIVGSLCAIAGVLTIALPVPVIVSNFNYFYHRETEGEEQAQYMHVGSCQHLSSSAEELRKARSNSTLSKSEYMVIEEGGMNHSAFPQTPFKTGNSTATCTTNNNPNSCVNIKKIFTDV
row,SMILES,Kv1.3 channel block
1,"O=C(Nc1ccc(C2=N[C@H](Cc3ccccc3)CO2)cc1)Nc1ccc(S(=O)(=O)NCc2cc(F)c(F)c(F)c2)cc1 [Example 3, 4-{3-[4-(4-(R)-Benzyl-4,5-dihydro-oxazol-2-yl)-phenyl]-ureido}-N-(3,4,5-trifluoro-benzyl)-benzenesulfonamide]",blockers
2,"O=C(Nc1cccc(C2=N[C@H](c3ccccc3)CO2)c1)Nc1cccc(C(F)(F)F)c1 [Example 5, 1-[3-(4-(R)-Phenyl-4,5-dihydro-oxazol-2-yl)-phenyl]-3-(3-trifluoromethyl-phenyl)-urea]",blockers
3,"O=C(Nc1cccc(C2=N[C@@H](c3ccccc3)CO2)c1)Nc1cccc(C(F)(F)F)c1 [Example 6, 1-[3-(4-(S)-Phenyl-4,5-dihydro-oxazol-2-yl)-phenyl]-3-(3-trifluoromethyl-phenyl)-urea]",blockers
4,"O=C(Nc1cccc(C2=N[C@H](Cc3ccccc3)CO2)c1)Nc1cccc(C(F)(F)F)c1 [Example 7, 1-[3-(4-(R)-Benzyl-4,5-dihydro-oxazol-2-yl)-phenyl]-3-(3-trifluoromethyl-phenyl)-urea]",blockers
5,"O=C(Nc1cccc(C2=N[C@@H](Cc3ccccc3)CO2)c1)Nc1cccc(C(F)(F)F)c1 [Example 8, 1-[3-(4-(S)-Benzyl-4,5-dihydro-oxazol-2-yl)-phenyl]-3-(3-trifluoromethyl-phenyl)-urea]",blockers

# Biological target: IMPDH
# Test: IMPDH enzyme assay (NADH release at 340 nm)
# Type: biochemical, human
# Details: 0.2 mM IMP, 0.4 mM NAD, 37° C.
# Experimental: IMPDH Enzyme-Assay: For measuring IMPDH activity in vitro, the substrate inosine monophosphate (IMP) and enzyme, with or without inhibitor, are mixed together. […] The released NADH is measured at 340 nm. The assay is performed in PMMA half micro liter cuvettes, the total assay volume is 1 mL. 500 μl of 2× assay buffer (200 mM Tris/HCl, pH 8.0, 200 mM KCl, 6 mM EDTA and 4 mM DTT) are mixed with 10 μL of a freshly prepared 20 mM IMP solution (0.2 mM final concentration) and 10 μL of enzyme (0.03 U/mL). An appropriate amount of inhibitor is dissolved in 100% DMSO. 10 μL of this solution are added to the assay mix (1% DMSO final concentration). Finally 455 μL of deionized water are added to give the final volume of 1 mL. The mixture is incubated for 10 min at 37° C. The enzyme reaction is started by addition of 25 μL of a 16 mM NAD solution (0.4 mM final concentration). Reaction is followed for 30 min at 37° C. at 340 nm. The enzyme reaction runs linear with respect to time during the 30 min. The slopes of the resulting curves are calculated and results are presented in % of residual activity, which is calculated as % activity=(slope with inhibitor/slope without inhibitor) *100. For the determination of the IC50 values (concentration of inhibitor required for 50% inhibition) at least four different inhibitor concentrations were applied. Each data point was recorded in triplicates. […]
row,SMILES,IC50 [µM]
1,"COc1cc(NC(=O)Nc2ccc(S(=O)(=O)N3CCOCC3)cc2)ccc1C#N [Example 15, 1-(4-Cyano-3-methoxy-phenyl)-3-[4-(morpholine-4-sulfonyl)-phenyl]-urea]",< 5
